Measurements published in ChEMBL document CHEMBL1158023, “Sideroxylonal C, a new inhibitor of human plasminogen activator inhibitor type-1, from the flowers of Eucalyptus albens” (J Nat Prod, 1999).

The compounds below were run against Plasminogen activator inhibitor 1 (Homo sapiens, UniProt P05121) (assay: Inhibition of human PAI1 using tissue type plasminogen activator substrate by chromogenic absorbance at 405 nm).
Chain of Plasminogen activator inhibitor 1 (P05121 whole entry): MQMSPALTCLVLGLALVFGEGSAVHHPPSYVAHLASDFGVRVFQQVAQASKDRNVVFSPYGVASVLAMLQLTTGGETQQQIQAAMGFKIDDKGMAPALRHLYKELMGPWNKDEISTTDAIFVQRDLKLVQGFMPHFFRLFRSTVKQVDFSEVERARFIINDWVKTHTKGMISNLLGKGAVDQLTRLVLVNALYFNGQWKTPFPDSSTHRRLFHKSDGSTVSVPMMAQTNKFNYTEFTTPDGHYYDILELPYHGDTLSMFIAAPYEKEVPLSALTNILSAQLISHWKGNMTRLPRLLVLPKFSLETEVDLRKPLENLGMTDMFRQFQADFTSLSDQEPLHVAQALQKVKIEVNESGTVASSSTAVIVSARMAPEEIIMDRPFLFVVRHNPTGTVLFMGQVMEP

Question: Which IC50 does the source give for `CC(C)CC(=O)c1c(O)c(C=O)c2c(c1O)C[C@H]1C[C@H](C(C)C)C=C[C@@]1(C)O2` [EUGLOBAL IIC] here?
Answer: 700 µM

Question: How did the IC50 turn out when `CC(C)C[C@@H]1C[C@@]2(CC[C@@H]3C[C@H]2C3(C)C)Oc2c(C=O)c(O)c(C=O)c(O)c21` [ROBUSTADIAL A] was run?
Answer: 152 µM

Question: With `CC(C)C[C@@H]1c2c(O)c(C=O)c(O)c(C=O)c2O[C@@H](c2c(O)c(C=O)c(O)c(C=O)c2O)[C@@H]1C(C)C` [SIDEROXYLONAL A] as the compound, how does the IC50 read?
Answer: 3.3 µM

Question: How did the IC50 turn out when `CC(C)C[C@@H]1c2c(O)c(C=O)c(O)c(C=O)c2O[C@]2(C)C=C[C@@H](C(C)C)C[C@H]12` [EUGLOBAL IA2] was run?
Answer: 138 µM

Question: Which IC50 does the source give for `CC(C)C[C@H]1c2c(O)c(C=O)c(O)c(C=O)c2O[C@@H](c2c(O)c(C=O)c(O)c(C=O)c2O)[C@@H]1C(C)C` [SIDEROXYLONAL C] here?
Answer: 4.7 µM

Question: With `CC(C)C[C@@H]1c2c(O)c(C=O)c(O)c(C=O)c2O[C@@H](c2c(O)c(C=O)c(O)c(C=O)c2O)[C@H]1C(C)C` [SIDEROXYLONAL B] as the compound, how does the IC50 read?
Answer: 5.3 µM
